Earlier results on 1 molecule are cited in paper PMC6851657 (Clinical Pharmacology and Therapeutics, 2019).

Where two headings read alike, the source gives them in different places. Marks after values point to notes of the source that are not given here.

For data set [1] the following is noted: single oral 0.25 mg, observed, cited from earlier work.
For data set [2] the following is noted: cited from earlier work; for AUC decrease: coadministration of itraconazole.
The conditions of data set [3]: cited from earlier work.
The target in data set [4] is CYP3A4 (Homo sapiens, UniProt P08684). The settings on record: in vitro phenotyping, normalized to 100%; cited from earlier work.
Sequence of CYP3A4 (P08684 whole entry): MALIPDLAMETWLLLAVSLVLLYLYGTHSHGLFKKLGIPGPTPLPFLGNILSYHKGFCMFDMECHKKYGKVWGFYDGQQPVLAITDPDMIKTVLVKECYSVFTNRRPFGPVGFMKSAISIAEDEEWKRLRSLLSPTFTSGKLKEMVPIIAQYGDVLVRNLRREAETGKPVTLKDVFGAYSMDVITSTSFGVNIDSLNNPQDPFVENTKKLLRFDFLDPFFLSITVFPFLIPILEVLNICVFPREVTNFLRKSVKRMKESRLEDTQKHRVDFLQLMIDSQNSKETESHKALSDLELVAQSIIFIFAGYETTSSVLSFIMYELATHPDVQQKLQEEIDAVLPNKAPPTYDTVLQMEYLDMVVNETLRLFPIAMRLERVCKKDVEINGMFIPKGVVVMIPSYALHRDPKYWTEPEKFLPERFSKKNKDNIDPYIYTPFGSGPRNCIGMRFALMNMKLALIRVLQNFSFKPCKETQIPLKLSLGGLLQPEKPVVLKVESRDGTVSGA
[5] abbreviates: coadministration of rifampin, CYP2C9*1/*1.
Setting [6] is: coadministration with fluconazole, CYP2C9*1/*1.

Consider `CCc1cc(/C(C)=N/OCc2ccc(C3CCCCC3)c(C(F)(F)F)c2)ccc1CN1CC(C(=O)O)C1` [siponimod], for which, in data set [1] (CYP2C9*1/*1), the AUCinf is recorded as 70.5 (21.2) ng·hour/mL and the t1/2 is given as 28.1 (18.5) h. Besides, in data set [1] (CYP2C9*2/*3), the AUCinf is listed as 144 (15.7) ng·hour/mL, the Cmax is given as 2.45 (13.1) ng/mL and the t1/2 was 50.9 (31.7) h. Also, in data set [1] (CYP2C9*3/*3), the AUCinf is listed as 271 (22.4) ng·hour/mL, the Cmax is 2.35 (29.0) ng/mL and the t1/2 is given as 126 (12.7) h. Also, the AUC decrease in data set [2] (CYP2C9*1/*2) is on record as 9–10%. Also, the AUC decrease in data set [2] (CYP2C9*1/*3) is given as 24%. In data set [2] (setting [5]), the AUC reduction is on record as 57% and the Cmax reduction is on record as 45%. In data set [2] (setting [6]), the AUC increase result is “increased approximately two fold” and the Cmax increase is on record as ~ 10%. The “Fraction available from dosage form” value in data set [3] (based on amount of siponimod excreted to feces) was 0.91 ^c. In data set [3] (estimated based on PopPK model, ref Novartis data on file), the Absorption rate constant is given as 0.687 ^d 1/hour. Moreover, the “contribution of CYP3A4 to metabolism” value in data set [4] is recorded as 18.5%.
